From US12268694B2, “Combination pharmaceutical agents as RSV inhibitors” (Enanta Pharmaceuticals, Inc., priority 2017, dated 2025) come the findings set out here.

Structures are written as SMILES. Where two headings read alike, the source gives them in different places. Where only a bound is given, the exact number is not on record here.

The subject of the test is genotype A, "Long" strain RSV. The test can be described thus: RSV-A assay: CPE protection in HEp-2 cells, ATPlite readout. The test is classed as cell-based, human respiratory syncytial virus. From the text: HEp-2 cells, (originally derived from tumors grown in irradiated-cortisonised weanling rats that had been injected with epidermoid carcinoma tissue from a person's larynx, but later found to be indistinguishable from HeLa cells by PCR DNA analysis), were used for the culturing of genotype A, “Long” strain RSV. Flasks were inoculated with RSV and viral stocks were collected once cytopathic effect (CPE) was greater than 90%. Viral stocks in 25% sucrose media were snap frozen using liquid nitrogen to increase viral stability. Viral stock titers were quantified by tissue culture infectious dose 50% (TCID50) using 8,000 cells per well and 3-fold viral dilutions across a 96-well plate, cultured for 4 days. Viral stock titers were also quantified by a plaque forming unit assay, as described elsewhere.
Following extensive parameter testing, the final assay is run as follows: HEp-2 cells are seeded into the inner 60 wells of a 96-well plate at 8,000 cells per well in a volume of 50 μL using Growth Media (DMEM without phenol red, 1% L-Glut, 1% Penn/Strep, 1% nonessential amino acids, 10% heat-inactivated FBS). 2-fold serial dilutions of control and test compounds are added to the wells in duplicate in a total volume of 25 μL. Viral stock is then added to the wells at a multiplicity of infection (MOI) of 0.1 in a volume of 25 μL, bringing the total volume of each well to 100 μL. The MOI is calculated using the PFU/mL, or TCID50 if unavailable. Each 96-well plate has a control column of 6 wells with cells and virus but no compound (negative control, max CPE), a column with cells but no compound or virus (positive control, minimum CPE), and a column with no cells or virus or compound (background plate/reagent control). The control wells with cells but no virus are given an additional 25 μL of growth media containing an equal quantity of sucrose as those wells receiving the viral stock in order to keep consistent in media and volume conditions. The outer wells of the plate are filled with 125 μL of moat media (DMEM, 1% Penn/Strep) to act as a thermal and evaporative moat around the test wells. Following a 5-day incubation period, the plates are read using ATPlite (50 μL added per well), which quantifies the amount of ATP (a measure of cell health) present in each well. Assay plates are read using the Envision luminometer. In parallel, cytotoxicity is examined on an additional 96-well plate treated in an identical manner, but substituting the 25 μL of viral stock for 25 μL of growth media. […] EC50 ranges are as follows: A <0.4 μM; B 0.4-0.8 μM; C >0.8 μM and CC50 ranges are as follows: A >50 μM; B 10-50 μM; C <10 μM.
In general terms: In ATP-based viability assays light output follows the ATP content of the culture.

[1] abbreviates: human respiratory syncytial virus, HEp-2, read-out: Human RSV-A (“Long” strain) EC50.
Where [2] appears, read: HEp-2 cells, RSV-A Long strain, ATPlite readout, read-out: Human RSV-A (“Long” strain) EC50.

The EC50 is the midpoint of the concentration-response curve. Turning to `COCC1(Nc2cc(C(F)(F)F)cnc2-c2nnc(N[C@H]3N=C(c4ccccc4)c4ccccc4NC3=O)o2)CC1` [Example 415], the EC50 under setting [1] was greater than 800 nM.

Regarding `O=C1Nc2ccccc2C(c2ccccc2)=NC1Nc1nnc(-c2ncc(N3CCOCC3)cc2Cl)o1` (stereo not shown) [Example 135], the EC50 under setting [1] was greater than 800 nM.

Consider `CN(C)CCOc1ccccc1-c1nnc(NC2N=C(c3ccccc3)c3ccccc3NC2=O)o1` (stereo not shown) [Example 234], for which, under setting [1], the EC50 was greater than 800 nM.

Regarding `O=C1Nc2ccccc2C(c2ccccc2)=N[C@@H]1Nc1nnc(-c2ncc(C(F)(F)F)cc2N[C@H]2CCC[C@H]2O)o1` [Example 422], the EC50 under setting [1] lay in the range of 400 to 800 nM.

Consider `COCCN(C)c1ccc(-c2nnc(NC3N=C(c4ccccc4)c4ccccc4NC3=O)o2)cc1` (stereo not shown) [Example 118], for which the EC50 under setting [1] is greater than 800 nM.

With `COC[C@H]1CCCN1c1sc(C(F)(F)F)nc1-c1nnc(N[C@H]2N=C(c3ccccc3)c3ccccc3NC2=O)o1` [Example 456], the EC50 under setting [1] is greater than 800 nM.

Consider `Cc1cc(-c2nnc(N[C@H]3N=C(c4ccccc4)c4ccccc4NC3=O)o2)n(C2CCOCC2)n1` [Example 432], for which the EC50 under setting [1] was greater than 800 nM.

Regarding `Cn1cc(-c2nc(-c3nnc(N[C@H]4N=C(c5ccccc5)c5ccccc5NC4=O)o3)c(N3CCOCC3)s2)cn1` [Example 399], the 50% effective concentration (EC50) under setting [1] is less than 400 nM.

For the molecule `CC(C)(O)c1nnc(NC2N=C(c3ccccc3)c3ccccc3NC2=O)o1` (stereo not shown) [Example 213], the half-maximal effective concentration (EC50) under setting [1] was greater than 800 nM.

Turning to `O=C1Nc2ccccc2C(c2ccccc2)=NC1Nc1nnc(-c2ccccc2C2=CCOCC2)o1` (stereo not shown) [Example 353, 3-((5-(2-(3,6-dihydro-2H-pyran-4-yl)phenyl)-1,3,4-oxadiazol-2-yl)amino)-5-phenyl-1,3-dihydro-2H-benzo[e][1,4]diazepin-2-one], under setting [1], the EC50 is greater than 800 nM.

`CCc1nc(N2CCOCC2)c(-c2nnc(N[C@H]3N=C(c4ccccc4)c4ccccc4NC3=O)o2)cc1C#N` [Example 176]: the half-maximal effective concentration (EC50) under setting [1] was less than 400 nM.

`O=C1Nc2ccccc2C(c2ccccc2)=NC1Nc1nnc(-c2ncc(F)cc2N2CCOCC2)o1` (stereo not shown) [Example 137]: the concentration giving a half-maximal response (EC50) under setting [2] was greater than 800 nM.

As to `COC(C)(C)CNc1cc(C(F)(F)F)cnc1-c1nnc(N[C@H]2N=C(c3ccccc3)c3ccccc3NC2=O)o1` [Example 416], the EC50 under setting [1] is greater than 800 nM.

Turning to `O=C1Nc2ccccc2C(c2ccccc2)=NC1Nc1nnc(-c2cccc(-n3ccnc3)c2)o1` (stereo not shown) [Example 212], under setting [1], the EC50 is greater than 800 nM.

As for `O=C1Nc2ccccc2C(c2ccccc2)=N[C@@H]1Nc1nnc(-c2nc(-c3ccc(F)cn3)sc2N2CCOCC2)o1` [Example 389], the EC50 under setting [1] is less than 400 nM.

With `O=C1Nc2ccccc2C(c2ccccc2)=NC1Nc1nnc([C@H]2CCCO2)o1` (stereo partly shown) [Example 198], under setting [1], the EC50 was greater than 800 nM.

For `O=C1Nc2ccccc2C(c2ccccc2)=NC1Nc1nnc(C2CCC2)o1` (stereo not shown) [Example 196], the EC50 under setting [1] was greater than 800 nM.

With `O=C1Nc2ccccc2C(c2ccccc2)=N[C@@H]1Nc1nnc(-c2ncsc2C2=CCOCC2)o1` [Example 347], the 50% effective concentration (EC50) under setting [1] was less than 400 nM.

`O=C1Nc2ccccc2C(c2ccccc2)=N[C@@H]1Nc1nnc(-c2ncc(F)cc2N2CC3CCC(C2)O3)o1` [Example 299]: the EC50 under setting [1] is less than 400 nM.

In the case of `COc1ccn2ncc(-c3nnc(N[C@H]4N=C(c5ccccc5)c5ccccc5NC4=O)o3)c2c1` [Example 410], the 50% effective concentration (EC50) under setting [1] is greater than 800 nM.

For `O=C1Nc2ccccc2C(c2ccccc2)=NC1Nc1nnc(-c2ccc(N3CCOCC3)c(F)c2)o1` (stereo not shown) [Example 112], under setting [1], the EC50 is greater than 800 nM.

Turning to `C[C@H]1COCCN1c1ncccc1-c1nnc(NC2N=C(c3ccccc3)c3ccccc3NC2=O)o1` (stereo partly shown) [Example 261], under setting [1], the concentration giving a half-maximal response (EC50) was greater than 800 nM.

On to `O=C1Nc2ccccc2C(c2ccccc2)=N[C@@H]1Nc1nnc(-c2nnsc2N2CCOCC2)o1` [Example 292], for which the EC50 under setting [1] was less than 400 nM.

For `O=C1Nc2ccccc2C(c2ccccc2)=NC1Nc1nnc(-c2c(F)cc(F)cc2N2CCOCC2)o1` (stereo not shown) [Example 170], the half-maximal effective concentration (EC50) under setting [2] was greater than 800 nM.

Consider `C[C@@H]1COCCN1c1cc(C#N)cnc1-c1nnc(N[C@H]2N=C(c3ccccc3)c3ccccc3NC2=O)o1` [Example 301], for which, under setting [1], the concentration giving a half-maximal response (EC50) was less than 400 nM.

On to `Cc1cc(-c2nnc(N[C@H]3N=C(c4ccccc4)c4ccccc4NC3=O)o2)c(N2CCOCC2)s1` [Example 330], for which, under setting [1], the concentration giving a half-maximal response (EC50) is less than 400 nM.

With `O=C1Nc2ccccc2C(c2ccccc2)=NC1Nc1nnc(CC(F)(F)F)o1` (stereo not shown) [Example 203], the concentration giving a half-maximal response (EC50) under setting [1] is greater than 800 nM.

For `O=C1Nc2ccccc2C(c2ccccc2)=NC1Nc1nnc(-c2cc(F)ccc2N2CCOCC2)o1` (stereo not shown) [Example 119], the EC50 under setting [1] lay within 400 to 800 nM.

Take `O=C1Nc2ccccc2C(c2ccccc2)=NC1Nc1nnc(-c2ccc(OC3CCOCC3)cc2)o1` (stereo not shown) [Example 220]: the EC50 under setting [1] is greater than 800 nM.

With `O=C1Nc2ccccc2C(c2ccccc2)=N[C@@H]1Nc1nnc(-c2cc(C3CC3)sc2N2CCOCC2)o1` [Example 384], under setting [1], the EC50 was less than 400 nM.

As to `O=C1Nc2ccccc2C(c2ccccc2)=N[C@@H]1Nc1nnc(-c2ncc(C(F)(F)F)cc2N[C@@H]2CC[C@@H]2O)o1` [Example 418], the half-maximal effective concentration (EC50) under setting [2] is greater than 800 nM.

As for `O=C1Nc2ccccc2C(c2ccccc2)=NC1Nc1nnc(-c2cccnc2N2C3CCC2COC3)o1` (stereo not shown) [Example 265], the half-maximal effective concentration (EC50) under setting [1] is greater than 800 nM.

As to `COc1ccccc1-c1nc(-c2nnc(N[C@H]3N=C(c4ccccc4)c4ccccc4NC3=O)o2)c(N2CCOCC2)s1` [Example 342], the concentration for a half-maximal effect (EC50) under setting [1] was less than 400 nM.

With `Cc1nc(-c2nnc(N[C@H]3N=C(c4ccccc4)c4ccccc4NC3=O)o2)c(Cl)s1` [Example 344], under setting [1], the EC50 is greater than 800 nM.

Turning to `O=C1Nc2ccccc2C(c2ccccc2)=N[C@@H]1Nc1nnc(-c2ncc(C(F)(F)F)cc2N[C@H]2CCOC2)o1` [Example 470], the EC50 under setting [1] is greater than 800 nM.

Turning to `N#CCCc1nnc(NC2N=C(c3ccccc3)c3ccccc3NC2=O)o1` (stereo not shown) [Example 193], the half-maximal effective concentration (EC50) under setting [1] was greater than 800 nM.

With `O=C1Nc2ccccc2C(c2ccccc2)=NC1Nc1nnc(-c2cccnc2N2CC3CCC(C2)O3)o1` (stereo not shown) [Example 266], the EC50 under setting [1] was 400 to 800 nM.

As for `O=C1Nc2ccccc2C(c2ccccc2)=NC1Nc1nnc(-c2ncc(F)cc2N2CCOCC2)o1` (stereo not shown) [Example 138], the concentration for a half-maximal effect (EC50) under setting [2] is less than 400 nM.

For `O=C1Nc2ccccc2C(c2ccccc2)=N[C@@H]1Nc1nnc(-c2ncc(C(F)(F)F)cc2N[C@H]2CC[C@H]2O)o1` [Example 417], the EC50 under setting [2] was greater than 800 nM.

In the case of `O=C1Nc2ccccc2C(c2ccccc2)=N[C@@H]1Nc1nnc(-c2cn(CC3CC3)nc2N2CCOCC2)o1` [Example 446], the 50% effective concentration (EC50) under setting [2] was less than 400 nM.

For the molecule `O=C1Nc2ccccc2C(c2ccccc2)=NC1Nc1nnc(-c2ccc(F)nc2N2CCOCC2)o1` (stereo not shown) [Example 150], the EC50 under setting [2] is less than 400 nM.

For the molecule `N#Cc1c[nH]c2cc(-c3nnc(N[C@H]4N=C(c5ccccc5)c5ccccc5NC4=O)o3)ccc12` [Example 291], the EC50 under setting [1] is greater than 800 nM.

In the case of `O=C1Nc2ccccc2C(c2ccccc2)=N[C@@H]1Nc1nnc(-c2cnn(-c3ccccc3)c2)o1` [Example 350], the EC50 under setting [1] lay within 400 to 800 nM.

As to `O=C1Nc2ccccc2C(c2ccccc2)=N[C@@H]1Nc1nnc(-c2cn(CC3CC3)nc2N2CCOCC2)o1` [Example 447], under setting [2], the concentration giving a half-maximal response (EC50) lay in the range of 400 to 800 nM.

Take `O=C1Nc2ccccc2C(c2ccccc2)=N[C@@H]1Nc1nnc(-c2oc3cc(F)ccc3c2N2CCOCC2)o1` [Example 476]: under setting [1], the EC50 is 400 to 800 nM.

Turning to `CO[C@H]1CCN(c2ncccc2-c2nnc(NC3N=C(c4ccccc4)c4ccccc4NC3=O)o2)C1` (stereo partly shown) [Example 247], the EC50 under setting [1] was greater than 800 nM.

In the case of `O=C1Nc2ccccc2C(c2ccccc2)=NC1Nc1nnc(-c2ccccc2N2CCS(=O)(=O)CC2)o1` (stereo not shown) [Example 240], the EC50 under setting [1] is greater than 800 nM.

Turning to `C[C@@H]1CN(c2cc(F)ccc2-c2nnc(N[C@H]3N=C(c4ccccc4)c4ccccc4NC3=O)o2)C[C@H](C)O1` [Example 284], the EC50 under setting [1] was greater than 800 nM.

For `CN(CC(C)(C)O)c1cc(C(F)(F)F)cnc1-c1nnc(N[C@H]2N=C(c3ccccc3)c3ccccc3NC2=O)o1` [Example 308], the EC50 under setting [1] was greater than 800 nM.

Take `O=C1Nc2ccccc2C(c2ccccc2)=N[C@@H]1Nc1nnc(-c2cn(-c3ccccn3)nc2N2CCOCC2)o1` [Example 431]: under setting [1], the half-maximal effective concentration (EC50) is less than 400 nM.

For `N#Cc1ccc(-c2nnc(NC3N=C(c4ccccc4)c4ccccc4NC3=O)o2)s1` (stereo not shown) [Example 183], under setting [1], the half-maximal effective concentration (EC50) was less than 400 nM.

With `O=C1Nc2ccccc2C(c2ccccc2)=N[C@@H]1Nc1nnc(-c2ccc(=O)[nH]c2N2CCOCC2)o1` [Example 156, (S)-3-((5-(2-morpholino-6-oxo-1,6-dihydropyridin-3-yl)-1,3,4-oxadiazol-2-yl)amino)-5-phenyl-1,3-dihydro-2H-benzo[e][1,4]diazepin-2-one], the EC50 under setting [1] is greater than 800 nM.
